# From publication PMC3767973 (Chembiochem : a European journal of chemical biology, 2013)
# Tests used:
# IspC = molecular target: T1, IspC (Escherichia coli, UniProt P45568); assay: Inhibition of the coupling enzyme IspC by BnAP; type: biochemical; conditions: up to 1.5 mM
# T1 sequence (P45568 1-398): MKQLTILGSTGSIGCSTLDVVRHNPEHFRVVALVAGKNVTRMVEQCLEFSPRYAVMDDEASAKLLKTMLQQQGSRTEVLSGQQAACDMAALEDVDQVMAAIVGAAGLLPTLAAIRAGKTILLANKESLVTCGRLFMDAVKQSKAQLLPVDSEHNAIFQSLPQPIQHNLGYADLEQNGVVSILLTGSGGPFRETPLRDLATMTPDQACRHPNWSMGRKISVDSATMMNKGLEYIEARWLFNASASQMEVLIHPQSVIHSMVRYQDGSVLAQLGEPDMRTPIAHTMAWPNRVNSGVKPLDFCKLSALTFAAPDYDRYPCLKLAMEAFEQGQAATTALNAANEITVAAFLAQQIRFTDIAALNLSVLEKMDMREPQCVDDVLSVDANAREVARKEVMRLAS
# E. coli DXP synthase = molecular target: T2, E. coli DXP synthase (Escherichia coli, UniProt P77488); type: biochemical; conditions: 100 mM HEPES pH 8.0, 10-20 mM pyruvate, 10% DMSO, 37 °C; average ± SEM, triplicate
# T2 sequence (P77488 1-620): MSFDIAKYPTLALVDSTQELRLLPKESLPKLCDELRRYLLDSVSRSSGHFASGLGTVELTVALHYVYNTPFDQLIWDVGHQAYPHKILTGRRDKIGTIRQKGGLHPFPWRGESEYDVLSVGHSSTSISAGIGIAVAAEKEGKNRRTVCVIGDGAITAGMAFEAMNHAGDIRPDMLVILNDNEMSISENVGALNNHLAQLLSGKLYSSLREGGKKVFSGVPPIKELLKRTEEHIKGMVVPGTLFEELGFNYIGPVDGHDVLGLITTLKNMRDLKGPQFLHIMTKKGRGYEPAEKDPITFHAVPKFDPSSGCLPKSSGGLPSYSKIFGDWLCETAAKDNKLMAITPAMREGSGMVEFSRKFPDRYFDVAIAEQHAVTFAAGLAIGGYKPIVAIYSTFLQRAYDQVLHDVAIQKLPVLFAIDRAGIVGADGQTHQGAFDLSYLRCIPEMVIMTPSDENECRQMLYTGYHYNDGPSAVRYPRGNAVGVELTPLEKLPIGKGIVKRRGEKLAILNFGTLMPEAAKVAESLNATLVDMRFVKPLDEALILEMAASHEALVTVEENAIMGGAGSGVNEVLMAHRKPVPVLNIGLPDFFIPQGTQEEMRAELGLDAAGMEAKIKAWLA
# Porcine PDH E1 subunit = assay: Kinetic parameters of nitroso substrates with PDH; type: biochemical; conditions: read-out: PDH Km; 100 mM HEPES pH 8.0, 10-20 mM pyruvate, 10% DMSO, 37 °C; average ± SEM, triplicate
# DXP synthase [1] = molecular target: T3, DXP synthase (Escherichia coli, UniProt P77488); assay: Aromatic aldehydes as DXP synthase acceptor substrates; type: biochemical
# T3 sequence (P77488 1-620): T2 sequence (P77488 1-620)
# DXP synthase [2] = molecular target: DXP synthase (Escherichia coli, UniProt P77488); conditions: 0.5-5 mM nitroso substrate, 10-20 mM pyruvate, 37 °C, HPLC
# yeast TK = conditions: cited from earlier work
smiles,measurement,setting,value
"CC(=O)P(=O)(O)OCc1ccccc1 [BnAP, benzylacetylphosphonate]",Inhibition of the coupling enzyme (IspC),IspC,not observed
"O=Nc1ccccc1 [Compound 1, nitrosobenzene]",kcat,E. coli DXP synthase,2.92 ± 0.317 s⁻¹
same,Km,Porcine PDH E1 subunit,350 ± 30 µM
"O=C[C@H](O)COP(=O)(O)O [D-GAP, D-glyceraldehyde 3-phosphate, reference compound]",kcat,E. coli DXP synthase,1.7 ± 0.12 s⁻¹
"O=Cc1c(O)cc([N+](=O)[O-])cc1[N+](=O)[O-] [2-Hydroxy-4,6-dinitrobenzaldehyde]",kcat,DXP synthase [1]; aromatic aldehyde as acceptor substrate,0.00583 ± 0.00083 s⁻¹
same,Km relative to the natural substrate D-GAP,DXP synthase [1]; fold higher than D-GAP,~ 18 fold
CN(C)c1ccc(N=O)cc1 [Compound 4],Km,E. coli DXP synthase,54 ± 13 µM
same,kcat,E. coli DXP synthase,0.015 ± 0.0017 s⁻¹
same,Km,Porcine PDH E1 subunit,408 ± 60 µM
same,Substrate for DXP synthase (turnover),DXP synthase [2],is a substrate
same,Substrate for yeast TK,yeast TK,not a substrate
